Legend:
[1] = Inhibition of GARFTase in human KB cells expressing RFC/FRalpha/PCFT assessed as reduction in cell growth after 96 hrs by Cell-Titer Blue assay
[2] = Inhibition of GARFTase in human KB cells expressing RFC/FRalpha/PCFT assessed as reduction in cell growth after 96 hrs in presence of folic acid by Cell-Titer Blue assay

SMILES | IC50 [1] [µM] | IC50 [2] [µM]
Nc1nc2[nH]c(CCCN(C=O)c3ccc(C(=O)N[C@@H](CCC(=O)O)C(=O)O)cc3)cc2c(=O)[nH]1 | 0.013 | > 1
CC(=O)N(CCCc1cc2c(=O)[nH]c(N)nc2[nH]1)c1ccc(C(=O)N[C@@H](CCC(=O)O)C(=O)O)cc1 | 0.04 | > 1
Nc1nc2[nH]c(CCNc3ccc(C(=O)N[C@@H](CCC(=O)O)C(=O)O)cc3)cc2c(=O)[nH]1 | 0.00032 | 0.666
Nc1nc2[nH]c(CCCN(C(=O)C(F)(F)F)c3ccc(C(=O)N[C@@H](CCC(=O)O)C(=O)O)cc3)cc2c(=O)[nH]1 | 0.0054 | > 1

Further compounds by falling IC50 [1], results first:

IC50 [1] [µM] | IC50 [2] [µM] | SMILES
0.0025 | > 1 | Nc1nc2[nH]c(CCCOc3ccc(C(=O)N[C@@H](CCC(=O)O)C(=O)O)cc3)cc2c(=O)[nH]1
0.00095 | > 1 | Nc1nc2[nH]c(CCCNc3ccc(C(=O)N[C@@H](CCC(=O)O)C(=O)O)cc3)cc2c(=O)[nH]1
0.0003 | 0.757 | Nc1nc2[nH]c(CCCSc3ccc(C(=O)N[C@@H](CCC(=O)O)C(=O)O)cc3)cc2c(=O)[nH]1
